Data reported in article PMC6766826, “Antiproliferative S-Trityl-L-Cysteine -Derived Compounds as SIRT2 Inhibitors: Repurposing and Solubility Enhancement” (Molecules, 2019).
Counter-ions that a name gives are not always drawn.

Legend:
[1] = biological target: T1, SIRT2 (Homo sapiens, UniProt Q8IXJ6); test: In vitro SIRT2 deacetylase inhibition, electrophoretic mobility shift assay; assay type: biochemical; conditions: for SIRT2 inhibition activity (in words): in vitro; for IC50: recombinant SIRT2, FAM-RHKK(Ac)LM peptide, 1 mM NAD, 60 min 37 °C, mean ± SD, read-out: IC50 against SIRT2
T1 sequence (Q8IXJ6 1-389): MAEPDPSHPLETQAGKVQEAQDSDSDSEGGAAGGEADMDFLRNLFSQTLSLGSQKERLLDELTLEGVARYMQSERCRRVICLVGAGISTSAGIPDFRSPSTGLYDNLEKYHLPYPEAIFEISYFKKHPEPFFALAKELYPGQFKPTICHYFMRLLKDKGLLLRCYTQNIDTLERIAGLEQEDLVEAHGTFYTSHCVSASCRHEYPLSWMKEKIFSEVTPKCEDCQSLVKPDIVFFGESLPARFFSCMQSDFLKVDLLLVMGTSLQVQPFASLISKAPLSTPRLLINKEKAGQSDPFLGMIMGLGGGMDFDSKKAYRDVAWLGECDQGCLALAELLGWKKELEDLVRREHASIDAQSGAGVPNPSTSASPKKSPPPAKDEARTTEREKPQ
From the text: The designs of the new STLC derivatives were based on TH-3 by conserving its trityl group, whereas the L-histidine moiety was replaced by L-cysteine. To obtain exhaustive structure–activity relationship (SAR) information, the amino group was reductively alkylated or acylated using different substituted aldehydes and acyl chlorides, respectively. The terminal methyl ester group was kept or converted to hydrazide (Figure 2). […] Two noncommercially available aldehydes, 4-(dimethylamino)picolinaldehyde and 4-(diethylamino)picolinaldehyde, were prepared as described previously. Thereafter, the in vitro SIRT2 inhibitory activities of these synthesized compounds were examined using electrophoretic mobility shift assays
Deacetylase activities of SIRT2 were measured with an electrophoretic mobility shift assay. […] After 60 min at 37 °C, the reaction was stopped by adding nicotinamide (final concentration 10 mM) in 50 μL stop buffer (100 mM HEPES (pH 7.5), 10 mM EDTA, 0.25% CR-3). The samples were analyzed using a LabChip EZ Reader II (PerkinElmer, Waltham, MA, USA). Percent conversion was defined as 100 × P / (P + S), where P and S are peak heights of the product and peptide substrate, respectively. The IC50 values were determined as means with standard deviation calculated from at least three independent dose–response curves using Origin software (OriginLab, Northampton, MA, USA).

[2] = system: MCF-7; test: MTT assay, MCF-7 cells; assay type: cell-based, human; conditions: breast cancer
From the text: (§1) Next, the three active compounds (STC4, STC9, and STC11) were utilized for a cell-based assay to explore their potential antiproliferative effect against different cancer cell lines, including MCF7 (breast cancer), HeLa (cervical cancer), and different genotypes of leukemic cells (K562, MT-2, and HL-60) using an MTT assay. […] In general, STC11 cellular activity was less than STC4 and STC9. This may be explained by the lower cellular permeability due to the presence of the more polar hydrazide group.
(§2) HeLa human cervical carcinoma cell lines were incubated in Dulbecco’s modified Eagle’s medium. MCF-7 human breast cancer, leukemic (K562, HL-60, MT-2, and Jurkat), and normal blood (PBMC) (Precision Bioservices, Frederic, MD, USA) cells were incubated in RPMI1640 medium. All media (Wako, Osaka, Japan) were supplemented with 10% fetal bovine serum (Sigma-Aldrich, St. Louis, MO, USA) and 89 μg/mL streptomycin (Meiji Seika, Tokyo, Japan) at 37 °C in a humidified atmosphere of 95% air and 5% CO2. Exponentially growing cells were cultured in 24-well and 96-well plates (Iwaki brand Asahi Glass, Tokyo, Japan) at 2 × 10^4 cells/mL and 1 × 10^6 cells/mL, respectively, for 96 h before the addition of drugs (optimum cell number for cytotoxicity assays was determined in preliminary experiments). Stock solutions of compounds in concentrations between 0.01–10 mM were prepared in dimethyl sulfoxide (DMSO; Wako, Osaka, Japan) and further dilution was made with fresh culture medium. The concentration of DMSO in the final culture medium was 1%, which had no effect on cell viability.
(§3) The level of cellular MTT (Dojindo, Kumamoto, Japan) reduction was quantified as described previously […] At the end of this period, cells were stained with MTT solution and incubated for an additional 4 h at 37 °C. After the medium was removed, the formazan crystals were solubilized by addition of 100 μL DMSO to each well, and absorbance was determined using an Infinitive M1000 plate reader (Tecan, Mannedorf, Switzerland) at a wavelength of 550 nm with background subtraction at 630 nm. Every concentration was repeated in three wells, and IC50 values were calculated from MTT results and defined as the drug concentrations that reduced absorbance to 50% of the control values.

[3] = system: MT-2; test: MTT assay, MT-2 cells; assay type: cell-based, human; conditions: leukemic cells
From the text: as §1, §2, §3

[4] = system: K562; test: MTT assay, K562 cells; assay type: cell-based, human; conditions: leukemic cells
From the text: as §1, §2, §3

[5] = system: HeLa; test: MTT assay, HeLa cells; assay type: cell-based, human; conditions: 96 h exposure, cervical cancer
From the text: as §1, §2, §3

[6] = system: HL-60; test: MTT assay, HL-60 cells; assay type: cell-based, human; conditions: leukemic cells
From the text: as §1, §2, §3

[7] = system: plasmid DNA (pUC19 DNA); test: DNA cleavage assay with plasmid DNA; conditions: 1 μM concentration, 37 °C, 2 h, with and without iron (II), H2O2, ascorbic acid
Procedure: We then tested DNA cleavage as a possible molecular mechanism for cytotoxicity of the tested compounds using plasmid DNA (pUC19 DNA) witH- and without iron (II), H2O2, and ascorbic acid complex (Figure 3). The DNA cleavage reaction was carried out by incubating the reaction mixture at 37 °C for 2 h, and electrophoresis was performed. After electrophoresis, the DNA was stained with ethidium bromide, and the bands were visualized by exposure to ultraviolet radiation and recorded using an electronic camera. […] Furthermore, these compounds may activate oxygen in the cytoplasm. This may explain their high cellular cytotoxic activity owing to a dual effect combining SIRT2 inhibition and DNA cleavage.
The DNA cleavage assays were performed as described previously. Intensity of the bands was quantitated using ImageJ software (NIH, Bethesda, MD, USA).
Figure 3 The inhibitory effects of selected compounds on DNA cleavage in the presence and absence of FeSO4, H2O2, and ascorbic acid. (A) Form I (supercoil), form II (single strand break), and form III (double strand break) bands after electrophoresis. The Form I band is the lower and the Form II band is the upper portion. The pUC19 enzyme cut (by EcoR I) generates form III with mid mobility (the second lane from the left). (B) Relative intensity of form I and form II bands.

[8] = system: NCI 60 tumor cell line; design: method as in doi:10.1002/ddr.430340203; conditions: NCI 60 tumor cell line screen; cited from earlier work
[9] = Homo sapiens, MCF7, 96 h exposure
[10] = Homo sapiens, MT2, 96 h exposure
[11] = Homo sapiens, K562, 96 h exposure
[12] = Homo sapiens, HL-60, 96 h exposure

## COC(=O)C(N)CSC(c1ccccc1)(c1ccccc1)c1ccccc1 (stereo in doubt) [Compound 1, S-Trityl-L-Cysteine Methyl Ester Hydrochloride]
[1]
  SIRT2 inhibition activity (in words): inactive
  IC50: > 100 µM

## COC(=O)[C@H](CSC(c1ccccc1)(c1ccccc1)c1ccccc1)NCc1cccc(Br)n1 [STC1, Methyl N-((6-bromopyridin-2-yl)methyl)-S-trityl-L-cysteinate]
[1]
  IC50: > 100 µM

## CCN(CC)c1ccc(CN[C@@H](CSC(c2ccccc2)(c2ccccc2)c2ccccc2)C(=O)OC)cc1 [STC2, Methyl N-(4-(diethylamino)benzyl)-S-trityl-L-cysteinate]
[1]
  IC50: > 100 µM

## COC(=O)[C@H](CSC(c1ccccc1)(c1ccccc1)c1ccccc1)NCc1ccc(N(C)C)cc1 [STC3, Methyl N-(4-(dimethylamino)benzyl)-S-trityl-L-cysteinate]
[1]
  IC50: > 100 µM

## COC(=O)[C@H](CSC(c1ccccc1)(c1ccccc1)c1ccccc1)NCc1cc(N(C)C)ccn1 [STC4, Methyl N-((4-(dimethylamino)pyridin-2-yl)methyl)-S-trityl-L-cysteinate]
[2]; [9]
  IC50: 3.16 ± 0.26 µM
[3]; [10]
  IC50: 3.15 ± 0.13 µM
[1]
  IC50: 10.8 ± 1.9 µM
[1]; vs TH-3
  fold decrease in SIRT2 inhibition activity compared with TH-3: 10 fold
[4]; [11]
  IC50: 2.17 ± 0.25 µM
[5]; Homo sapiens, HeLa
  IC50: 1.56 ± 0.17 µM
[6]; [12]
  IC50: 0.45 ± 0.05 µM

## COC(=O)[C@H](CSC(c1ccccc1)(c1ccccc1)c1ccccc1)NCc1ccc(N(C)C)cc1Cl [STC5, Methyl N-(2-chloro-4-(dimethylamino)benzyl)-S-trityl-L-cysteinate]
[1]
  IC50: > 100 µM

## COC(=O)[C@H](CSC(c1ccccc1)(c1ccccc1)c1ccccc1)NCc1ccc(N(C)C)cc1OC [STC6, Methyl N-(2-methoxy-4-(dimethylamino)benzyl)-S-trityl-L-cysteinate]
[1]
  IC50: > 100 µM

## COC(=O)[C@H](CSC(c1ccccc1)(c1ccccc1)c1ccccc1)NCc1cnc2ccccc2c1 [STC7, Methyl N-(quinolin-3-ylmethyl)-S-trityl-L-cysteinate]
[1]
  IC50: > 100 µM

## COC(=O)[C@H](CSC(c1ccccc1)(c1ccccc1)c1ccccc1)NCc1ccccn1 [STC8, Methyl N-(pyridin-2-ylmethyl)-S-trityl-L-cysteinate]
[1]
  SIRT2 inhibition activity (in words): devoid of SIRT2 inhibition activity
  IC50: > 100 µM

## CCN(CC)c1ccnc(CN[C@@H](CSC(c2ccccc2)(c2ccccc2)c2ccccc2)C(=O)OC)c1 [STC9, Methyl N-((4-(diethylamino)pyridin-2-yl)methyl)-S-trityl-L-cysteinate]
[2]; [9]
  IC50: 3.32 ± 0.41 µM
[3]; [10]
  IC50: 2.55 ± 0.28 µM
[1]
  IC50: 17.2 ± 1.2 µM
[4]; [11]
  IC50: 2.53 ± 0.31 µM
[5]; Homo sapiens, HeLa
  IC50: 2.72 ± 0.19 µM
[6]; [12]
  IC50: 1.19 ± 0.09 µM
[7]
  DNA cleavage effect: strongest DNA cleavage effect

## COC(=O)[C@H](CSC(c1ccccc1)(c1ccccc1)c1ccccc1)NC(=O)c1cc(N(C)C)ccn1 [STC10, Methyl N-(4-(dimethylamino)picolinoyl)-S-trityl-L-cysteinate]
[1]
  SIRT2 inhibition activity (in words): no activity
  IC50: > 100 µM

## CN(C)c1ccnc(CN[C@H](CSC(c2ccccc2)(c2ccccc2)c2ccccc2)C(=O)NN)c1 [STC11, (S)-2-(((4-(dimethylamino)pyridin-2-yl)methyl)amino)-3-(tritylthio)propanehydrazide]
[2]; [9]
  IC50: 10 ± 1.12 µM
[3]; [10]
  IC50: 16.8 ± 1.04 µM
[1]
  IC50: 9.5 ± 1.2 µM
[4]; [11]
  IC50: 15 ± 1.17 µM
[5]; Homo sapiens, HeLa
  IC50: 7.95 ± 0.81 µM
[6]; [12]
  IC50: 12.8 ± 0.95 µM

## N[C@@H](CSC(c1ccccc1)(c1ccccc1)c1ccccc1)C(=O)O [STLC, S-trityl-L-cysteine]
[8]
  half maximal tumor growth inhibition concentration: 1.3 µM

## Cc1cc(C)nc(SCC(=O)Nc2ncc(Cc3cccc4ccccc34)s2)n1 [SirReal2, reference compound]
[2]; 96 h exposure
  IC50: 17.1 ± 2.15 µM
[3]; 96 h exposure
  IC50: 17.9 ± 1.52 µM
[4]; 96 h exposure
  IC50: 13.7 ± 0.44 µM
[5]
  IC50: 10.4 ± 0.94 µM
[6]; 96 h exposure
  IC50: 90.6 ± 8.77 µM

## CCN(CC)c1ccnc(CN[C@H](Cc2cn(C(c3ccccc3)(c3ccccc3)c3ccccc3)cn2)C(=O)OC)c1 [TH-3, reference compound]
[2]; [9]
  IC50: 0.71 ± 0.08 µM
[3]; [10]
  IC50: 0.17 ± 0.02 µM
[1]
  IC50: 1.3 ± 0.2 µM
[4]; [11]
  IC50: 0.3 ± 0.02 µM
[5]; Homo sapiens, HeLa
  IC50: 0.37 ± 0.04 µM
[6]; [12]
  IC50: 0.28 ± 0.04 µM
